# Literature values, collected in US20140163109A1, “TASTE-MASKED IBUPROPEN GRANULES” (GLATT AG, priority 2012, published 2014).
compound,measurement,value
"CC(C)Cc1ccc(C(C)C(=O)O)cc1 (racemic) [Ibuprofen, (±)-2-(4-isobutylphenyl) propionic acid]",solubility in water,poorly soluble in water
